Test [1] deals with T1, OR2A25 (original human receptor) (Homo sapiens, UniProt A4D2G3).
T1 construct: expressed in transfected cells; host or cells: HEK293
In words: Luciferase assay (odorant response). The format is cell-based. Here is the method:
(§1) For luciferase assay, a reaction solution was prepared according to composition shown in Table 4, left standing for 20 minutes in a clean bench, and then added to each well of a 96-well plate (Becton, Dickinson and Company). Subsequently, 100 μL of HEK293 cells suspended in DMEM (Nacalai Tesque, Inc.) was inoculated at 2×10^5 cells/cm^2 to each well, and cultured for 24 hours in an incubator kept at 37° C. and 5% CO2. Cells expressing no olfactory receptor (Mock) were provided as a control.
(§2) The medium was removed from the cultures prepared in 2), and 75 μL of a test substance solution with a predetermined concentration prepared with a fresh medium was added thereto. The cells were cultured for 4 hours in a CO2 incubator and the luciferase gene was sufficiently expresses in the cells. Luciferase activity was measured using Dual-Glo™ luciferase assay system (Promega Corp.) in accordance with the operation manual of the product. A luminescence value derived from firefly luciferase induced by test substance stimulation in each well of the 96-well plate was divided by a luminescence value derived from Renilla luciferase to calculate a signal, which was then used in analysis. The signal under each transfection condition was normalized with the signal under a stimulation-free condition defined as 0% and the signal by stimulation with 30 μM forskolin defined as 100%, and used as a response (%) in analysis.

For test [2], the target named is T2, consensus olfactory receptor 6B2 with R122C and C179R mutations (Homo sapiens, UniProt Q6IFH4, C161Y/C179R/C234R/E83D/G146A/H133Q/I215V/I48T/L135I/L142V/L17F/L255M/L256I/M157V/P138T/Q268R/Q89R/R122C/S64G/T78I/V136M/V15L/V166A/V250I/V281L/W219G).
T2 construct: expressed in transfected cells; host or cells: HEK293
In words: Luciferase assay (odorant response). Type of test: cell-based. Conditions: versus consensus 6B2. The protocol:
as §1, §2
(§3) Whether responsiveness coinciding with difference among individuals in sensory evaluation would be obtained was tested by applying the consensus design (c) to each human olfactory receptor newly identified in FIGS. 5 and 6, and then introducing an amino acid sequence reported to have difference among individuals (FIG. 7).

A further test deals with 6Y1. The settings on record: as disclosed in Non Patent Literature 2; cited from earlier work.
Test [3] addresses T3, consensus 10A2, (c) Ortholog (Homo sapiens, UniProt Q9H208, A297G/C30S/G257S/H207R/I240V/M268V/N222H/T20I/V292F).
T3 construct: expressed in transfected cells; host or cells: HEK293
As to the kind of experiment: Luciferase assay (odorant response). Type of test: cell-based. The protocol: as §1, §2

Test [4] concerns the target T4, consensus 10A4, (c) Ortholog (Homo sapiens, UniProt Q9H209, A244S/A267T/E4G/H132R/H139R/I140R/I51T/K296S/K303R/L305V/Q237K/Q264R/S141A/S155P/S269P/S279Y/S293L/S312P/T22S/V195L).
T4 construct: expressed in transfected cells; host or cells: HEK293
In words: Luciferase assay (odorant response). The format is cell-based. Here is the method:
as §1, §2

For test [5], the target named is T5, consensus 10A4 R262Q variant (Homo sapiens, UniProt Q9H209, A244S/A267T/E4G/H132R/H139R/I140R/I51T/K296S/K303R/L305V/Q237K/Q264R/R262Q/S141A/S155P/S269P/S279Y/S293L/S312P/T22S/V195L).
T5 construct: expressed in transfected cells; host or cells: HEK293
As to the kind of experiment: Luciferase assay (odorant response). Type of test: cell-based. Here is the method: as §1, §2, §3

The target of test [6] is T6, consensus OR10A2 variant of H43R, H207R, and K258T (Homo sapiens, UniProt Q9H208, A297G/C30S/G257S/H207R/H43R/I240V/K258T/M268V/N222H/T20I/V292F).
T6 construct: expressed in transfected cells; host or cells: HEK293
As to the kind of experiment: Luciferase assay (odorant response). The format is cell-based. Here is the method: as §1, §2, §3

In test [7] the target is T7, consensus olfactory receptor 5C1 with N5K mutation (Homo sapiens, UniProt Q8NGR4, A10R/A30T/A50V/C35F/G245C/H231R/H313C/I178V/I206V/K177E/L166F/L6F/M255L/M47V/M55V/N23D/N5K/Q142R/Q307R/R131G/R8W/S194N/S238R/S288A/T114A/T219A/T34I/V17I/V235A).
T7 construct: expressed in transfected cells; host or cells: HEK293
As to the kind of experiment: Luciferase assay (odorant response). Type of test: cell-based. Conditions: versus consensus 5C1. Here is the method:
as §1, §2, §3

The target in a further test is OR4E2 (Homo sapiens, UniProt Q8NGC2). The settings on record: in the presence of a metal ion (JP-A-2020-513564); cited from earlier work.

“Also recorded” adds a separate entry of the source.

T4 sequence (Q9H209 1-315 with the stated changes): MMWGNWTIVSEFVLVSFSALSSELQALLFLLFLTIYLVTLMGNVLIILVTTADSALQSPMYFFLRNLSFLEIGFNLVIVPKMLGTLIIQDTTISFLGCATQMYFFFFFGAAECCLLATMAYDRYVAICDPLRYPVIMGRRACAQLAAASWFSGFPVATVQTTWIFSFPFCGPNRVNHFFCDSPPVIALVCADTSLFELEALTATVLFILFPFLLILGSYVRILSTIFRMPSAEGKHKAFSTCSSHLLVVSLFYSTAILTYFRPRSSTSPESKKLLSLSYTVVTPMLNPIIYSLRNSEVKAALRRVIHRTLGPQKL
T6 sequence (Q9H208 with tags, fused parts or gaps with the stated changes): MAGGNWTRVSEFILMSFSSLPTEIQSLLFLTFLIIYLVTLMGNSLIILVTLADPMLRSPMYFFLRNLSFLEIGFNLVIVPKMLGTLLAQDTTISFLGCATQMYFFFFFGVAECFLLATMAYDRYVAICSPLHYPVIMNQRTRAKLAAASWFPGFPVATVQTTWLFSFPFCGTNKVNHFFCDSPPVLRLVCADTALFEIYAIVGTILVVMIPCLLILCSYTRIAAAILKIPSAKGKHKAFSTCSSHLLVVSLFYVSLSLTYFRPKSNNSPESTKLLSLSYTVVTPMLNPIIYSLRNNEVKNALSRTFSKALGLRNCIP
T3 sequence (Q9H208 with tags, fused parts or gaps T20I/C30S/H207R/N222H/I240V/G257S/M268V/V292F/A297G): as the sequence (Q9H208 with tags, fused parts or gaps with the stated changes) above, with R57H, T272K counted along it
T2 sequence (Q6IFH4 with tags, fused parts or gaps with the stated changes): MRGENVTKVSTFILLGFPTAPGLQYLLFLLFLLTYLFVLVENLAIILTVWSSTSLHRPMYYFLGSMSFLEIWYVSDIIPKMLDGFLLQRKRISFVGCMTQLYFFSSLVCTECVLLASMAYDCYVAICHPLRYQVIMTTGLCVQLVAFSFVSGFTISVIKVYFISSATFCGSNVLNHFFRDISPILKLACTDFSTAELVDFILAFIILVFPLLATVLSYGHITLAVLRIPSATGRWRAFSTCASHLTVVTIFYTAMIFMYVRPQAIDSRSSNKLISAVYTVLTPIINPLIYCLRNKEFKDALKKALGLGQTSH
OR4E2, sequence (Q8NGC2 whole entry): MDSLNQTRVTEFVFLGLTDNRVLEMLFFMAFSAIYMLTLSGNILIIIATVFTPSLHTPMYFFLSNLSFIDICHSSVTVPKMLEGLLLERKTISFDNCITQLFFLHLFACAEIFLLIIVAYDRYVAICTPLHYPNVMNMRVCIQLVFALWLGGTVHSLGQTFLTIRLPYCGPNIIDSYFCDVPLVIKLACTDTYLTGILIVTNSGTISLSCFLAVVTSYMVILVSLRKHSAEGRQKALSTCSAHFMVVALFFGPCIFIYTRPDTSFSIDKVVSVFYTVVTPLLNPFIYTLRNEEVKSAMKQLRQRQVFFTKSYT
T1 sequence (A4D2G3 whole entry): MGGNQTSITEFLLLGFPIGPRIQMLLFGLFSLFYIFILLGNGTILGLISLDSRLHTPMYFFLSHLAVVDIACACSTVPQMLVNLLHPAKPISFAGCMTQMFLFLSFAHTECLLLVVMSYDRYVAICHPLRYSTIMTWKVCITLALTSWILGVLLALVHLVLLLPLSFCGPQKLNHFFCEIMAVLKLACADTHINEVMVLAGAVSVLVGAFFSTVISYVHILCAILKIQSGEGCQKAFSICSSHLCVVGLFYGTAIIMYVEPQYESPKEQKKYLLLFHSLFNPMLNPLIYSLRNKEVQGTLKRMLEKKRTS
T7 sequence (Q8NGR4 1-320 with the stated changes): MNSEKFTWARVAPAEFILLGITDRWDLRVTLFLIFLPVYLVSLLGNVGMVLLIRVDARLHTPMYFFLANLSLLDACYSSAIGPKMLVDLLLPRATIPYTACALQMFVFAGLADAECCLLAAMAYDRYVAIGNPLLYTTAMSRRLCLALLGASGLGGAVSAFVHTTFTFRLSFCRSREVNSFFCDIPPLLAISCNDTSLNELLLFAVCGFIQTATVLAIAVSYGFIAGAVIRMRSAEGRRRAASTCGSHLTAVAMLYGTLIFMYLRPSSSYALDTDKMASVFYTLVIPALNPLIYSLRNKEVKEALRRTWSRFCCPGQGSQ

Regarding `CC(C)=CCC/C(C)=C/CO` [geraniol], the “response of 2A25 (ranking of affinity for 2 agonists)” value in test [1] was “responded to geraniol at a lower concentration in comparison with geranyl formate”.

For `CC(C)C=O` [isobutyraldehyde], the “responsiveness of consensus 6B2 with R122C and C179R” value in test [2] was “markedly reduced”.

Regarding `CC(=O)C(C)=O` [diacetyl], the “response of 6Y1” value in the test on 6Y1 is “responds”.

With `CCCCCCC/C=C/C=O` [(E)-2-decenal], the “response of consensus 10A2” value in test [3] is “can recognize”. The “response of consensus 10A4” value in [4] was “can recognize; also recorded: lower responsiveness”. Further, the “responsiveness of the 10A4 R262Q variant” value in test [5] is given as “no change in responsiveness”. For the same molecule, the “responsiveness of the 10A2 variant of H43R, H207R, and K258T” value in test [6] is recorded as “markedly low responsiveness”.

On to `CC(C)=CCCC(C)=CC=O` [citral], for which the “responsiveness of consensus 5C1 with N5K” value in test [7] was “markedly reduced”.

Take `CC(C)(S)CCO` [3-mercapto-3-methylbutanol]: the “response of OR4E2” value at OR4E2 is “responds”.

`CCCCCCCCC/C=C/C=O` [(E)-2-dodecenal]: the “response of consensus 10A2” value in test [3] is recorded as “can recognize”. Also, in [4], the “response of consensus 10A4” value was “can recognize; also recorded: lower responsiveness”. Further, the “responsiveness of the 10A4 R262Q variant” value in test [5] is reported as “no change in responsiveness”. In addition, the “responsiveness of the 10A2 variant of H43R, H207R, and K258T” value in test [6] was “markedly low responsiveness”.
